Experimental data as given in patent US12685777B2, “Compositions, systems, and methods for modulating a target gene” (The Board of Trustees of the Leland Stanford Junior …, priority 2022, dated 2026).
Like-named read-outs stand apart in the source and are kept apart here.

How the values were obtained:
KARPAS422 = assay: Cell viability (resazurin/PrestoBlue) of KARPAS422 DLBCL cells; type: cell-based, human
Experimental: (§1) 30,000 cells were plated in 100 μL media per well of a 96 well plate and treated with drug for indicated times and doses. A resazurin-based indicator of cell health (PrestoBlue, ThermoFisher #P50200) was added for 1.5 hours after which the fluorescence ratio at 560/590 nm was recorded. The background fluorescence was subtracted and the signal was normalized to DMSO-treated cells. EC50 measurements on cell lines were done with 4 biological repeats by separate cell passages maintained by 3 independent investigators. Fit of dose-response curves to data and statistical analysis was performed using drc package in R using the four-parameter log-logistic function.
These molecules were tested for their effect on viability of the chemotherapy (CHOP, or cyclophosphamide, hydroxydaunorubicin, Oncovin, and prednisone)-resistant DLBCL cell line, KARPAS422. […] Cell killing was essentially complete at 72 hours (FIG. 27, Panel D).

[1] = system: gene expression in KARPAS422 cells; assay: RNA-seq of drug-treated KARPAS422 cells; type: cell-based, human
Experimental: 12. RNA Extraction, qPCR, and Sequencing Library Preparation Cells were plated at 1 M/mL and harvested in TRIsure (Bioline #38033). RNA was extracted using Direct-zol RNA MicroPrep columns (Zymo #R^2062) treated with DNAseI. cDNA was prepared for RT-qPCR using the SensiFAST cDNA preparation kit according to manufacturer instructions (Bioline #65054). 1 μL of cDNA was used per RT-qPCR reaction prepared with SYBR Lo-ROX (Bioline #94020). For sequencing library preparation, polyA-containing transcripts were enriched for (NEB #E7490S) and prepared into paired-end libraries (NEB #E7760S). Libraries were sequenced on an Illumina NovaSeq (Novogene). 13. Western Blots
(www.bioinformatics.babraham.ac.uk/projects/fastqc/) and trimmed from adapters using cutadapt (Martin, M., EMBnet.journal (2011) 17: 10) using parameters cutadapt—a […] -b (SEQ ID NO:01) […] (SEQ ID NO:02) -nextseq-trim=20-minimum-length 1. Transcripts were quantified using kallisto (Bray et al., Nature Biotechnology (2016) 34: 525-527) against the human Gencode v33 indexed transcriptome and annotations. […] 15. ChIP-Seq Experiment and Library Preparation
(§2) Because a high percentage of the TCIP1-treated cells contain fragmented DNA by TUNEL assay at 24 hours (FIG. 31, Panel E), many of the “reduced genes” could reflect DNA fragmentation as part of the apoptotic process and digestion to mononucleosomes. Among the group of genes whose expression was most reduced were MYC and its targets (FIGS. 33B, 36C). The top 100 most TCIP1-reduced genes were examined using ChIP-seq data of human transcription factors in blood cancer cell lines, and found the promoters of TCIP1-inhibited genes highly enriched for MYC binding in multiple datasets (FIG. 33, Panel C). This is significant since many DLBCLs are considered to be MYC-dependent.
Almost all differential genes were increasingly activated at 4 hours compared to negligible effects of the control molecules Neg1 and Neg2 (FIG. 35, Panel B).

[2] = system: MYC, FOXO3, p21, BCL6, BRD4 protein levels in KARPAS422 and SUDHL5; assay: Western blots of target proteins in DLBCL cells; type: cell-based, human
Experimental: Cells were plated at 1 M/mL and treated with drug at indicated timepoints and doses. 2 M Cells were harvested on ice in RIPA buffer (50 mM Tris-HCl pH 8, 150 mM NaCl, 1% NP-40, 0.1% DOC, 1% SDS, protease inhibitor cocktail (homemade), 1 mM DTT) and 1:200 benzonase (Sigma #E1014) was added and incubated for 20 minutes. After 10 minute centrifugation at 14,000 g and 4° C., the supernatant was collected and protein concentration was measured by Bradford.
as §2
Signaling via NF-kB is known to be repressed by BCL6.

DLBCL cells = assay: Killing of DLBCL cell lines (cell viability); type: cell-based
Experimental: as §1
It was noted that neither Bl3812 nor JQ1 produced complete loss of cell viability (FIG. 28, Panel A) leaving a resistant population of cells as has been previously reported.

[3] = target: T1, bromodomain 1 of BRD4 and BTB domain of BCL6 (Homo sapiens, UniProt O60885+P41182, C67R/C84N/C8Q); assay: TR-FRET assay of ternary complex formation; type: binding; details: 1 hr at room temperature, 520 nm/490 nm ratio
T1 construct: contains amino acids 5-129 with three mutations, C8Q, C67R, C84N
Experimental: Reaction was incubated for 1 hr at room temperature, and subsequently the fluorescence at 520 nm and 490 nm was measured. The 520 nm/490 nm ratio is plotted respective to DMSO control. The two lower curves are performed by addition of Neg1 and Neg2 instead of JWZ-7-7. […] The structure of JWZ-7-7 is provided in FIG. 2 and the structures of Neg1 and Neg2 are provided below:
Each reaction contained 100 nM BRD4^BD1, 100 nM BCL6BTB-Avi-Biot, 20 nM Streptavidin-FITC (Thermo #SA1001), and 1:400 anti-6×His terbium antibody (PerkinElmer #61H12TLF) in 10 μL of buffer containing 20 mM HEPES, 150 mM NaCl, 0.1% BSA, 0.1% NP-40, and 1 mM TCEP in a 384-well plate. Protein was incubated with drug digitally dispensed (Tecan D300e) for 1 hour in the dark at room temperature before excitation at 337 nm and measurement of emission at 520 nm (FITC) and 490 nm (terbium) with a PHERAstar FS plate reader (BMG Labtech). The ratio of signal at 520 nm to 490 nm was calculated and normalized to DMSO-treated conditions, and plotted.

CNC(=O)COc1cc2cc(Nc3nc(N4CCC(C(=O)NCCCCCCCNC(=O)C[C@@H]5N=C(c6ccc(Cl)cc6)c6c(sc(C)c6C)-n6c(C)nnc65)CC4)ncc3Cl)cc(OC)c2n(C)c1=O [TCIP1]
EC50 (KARPAS422; KARPAS422 (CHOP-resistant, TP53-mutant DLBCL), 72 hours after addition of drug, read-out: EC50 of cell killing / cell viability): 1.3 nM | EC50 (KARPAS422; KARPAS422, without cell cycle arrest, read-out: EC50 of cell viability without arrest): 1.1 nM | Number of genes activated ([1]; 10 nM, 2 hours, KARPAS422): 140 genes | Median change of activated genes ([1]; 10 nM, 20 hours, KARPAS422): 4 fold | Number of genes increased in expression ([1]; 10 nM, 20 hours, KARPAS422): 1,674 genes | Number of genes reduced in expression ([1]; 10 nM, 20 hours, KARPAS422): 1,364 genes | Increase of CDKN1A (p21) expression ([1]; RNA-seq, 20 hours, KARPAS422): about 64 fold | Time to FOXO3 activation ([2]; 10 nM): within two hours | Effect on BRD4 protein levels ([2]; 20 hours, KARPAS422): did not change substantially | Concentration from which the long isoform of BCL6 protein is induced ([2]; DLBCL cell lines): 0.5 to 1 nM | Concentration that activates FOXO3 ([2]; Western blot): 0.5 nM | Concentration from which MYC protein levels are reduced ([2]; Western blot, DLBCL cells): less than 1 nM | Time to reduction of MYC protein levels ([2]; after drug addition): ≤ 2 h | EC50 (DLBCL cells; DLBCL lines including chemotherapy-resistant, TP53-mutant lines, 72 hrs): 1.3 nM | Ternary complex formation (TR-FRET) [3]: detected

CNC(=O)COc1cc2cc(Nc3nc(N4CCC(C(=O)NCCCCCCCNC(=O)C[C@@H]5N=C(c6ccc(Cl)cc6)c6c(sc(C)c6C)-n6c(C)nnc65)CC4)ncc3Cl)cc(OC)c2n(C)c1=O [JWZ-7-7, (S)-1-(5-chloro-4-((8-methoxy-1-methyl-3-(2-(methylamino)-2-oxoethoxy)-2-oxo-1,2-dihydroquinolin-6-yl)amino)pyrimidin-2-yl)-N-(7-(2-(4-(4-chlorophenyl)-2,3,9-trimethyl-6H-thieno[3,2-f][1,2,4]triazolo[4,3-a][1,4]diazepin-6-yl)acetamido)heptyl)piperidine-4-carboxamide]
EC50 (KARPAS422; Homo sapiens, KARPAS-422, KARPAS422 (CHOP-resistant, TP53-mutant DLBCL), 72 hours after addition of drug, read-out: EC50 of cell killing / cell viability): 1.3 nM | BCL6 repressed genes activated ([1]; RNA-seq): 60% | Concentration that regulates genes critical for DLBCL ([2]; Karpas 422, 24 hours, Western blot): < 1 NM | Cell killing after short exposure and washout (DLBCL cells; 10 nM, 4 hours exposure followed by washout): robust killing | Ternary complex formation (TR-FRET) [3]: showed ternary complex formation
